Key:
LasB WT (PAO1 reference) = target: T1, LasB WT (PAO1 reference) (Pseudomonas aeruginosa, UniProt P14756); experiment: LasB variant inhibition, Abz-AGLA-Nba assay with culture supernatant: WT; type: biochemical, P. aeruginosa
T1 construct: endogenous in cells; host or cells: P. aeruginosa strains of WT lasB genotype, culture supernatant
Excerpt: (§1) Compounds 12 and 16 were discovered as a result of optimizing potency against the LasB protein expressed from the wild-type (WT) reference strain P. aeruginosa PAO1. To understand the relative prevalence of the WT LasB protein versus other variants in clinical respiratory P. aeruginosa strains, the full-length lasB gene was amplified by PCR from 255 clinical isolates (obtained from CF sputum samples). […] Most changes were identified in the mature peptide, however some occurred in the propeptide domain, which could affect LasB processing (marked in italics in Table 4).
(§2) LasB inhibition assays were performed using purified LasB enzyme (1 ng/well) for compound screening or using culture supernatants (prepared as described in the ECR assay) for testing LasB variants. Hydrolysis of the fluorogenic peptide substrate 2-aminobenzoyl-Ala-Gly-Leu-Ala-4-nitrobenzylamide (Abz-AGLA-Nba; Peptide International) in 50 mM Tris-HCl (pH 7.4), supplemented with 2.5 mM CaCl2 was followed using an Envision microplate reader (PerkinElmer) at 315 nm excitation and 430 nm emission. […] IC50 values were determined from Hill plots using Dotmatics Studies ELN software. For the mechanism of inhibition studies, hydrolysis rates were measured in the presence of variable concentrations of substrate and inhibitor, and the inhibition constant (Ki) was determined using Dixon plot analysis.[31]

[1] = target: T2, LasB Q102R, S241G, D244N, K282N, R471S (Pseudomonas aeruginosa, UniProt P14756, D244N/K282N/R471S/S241G); experiment: LasB variant inhibition, culture supernatant: five substitutions; type: biochemical, P. aeruginosa
T2 construct: Most changes were identified in the mature peptide, however some occurred in the propeptide domain; endogenous in cells; host or cells: P. aeruginosa clinical CF isolate, culture supernatant
Excerpt: as §1, §2

[2] = Thermodynamic solubility in PBS (pH 7.4); type: physicochemical; conditions: aqueous buffer, thermodynamic from solid
[3] = target: T3, human neutrophil elastase (HNE) (Homo sapiens, UniProt P08246); experiment: HNE selectivity assay; type: biochemical
T3 construct: purchased Enzo Life Sciences
T3 sequence (P08246 30-267): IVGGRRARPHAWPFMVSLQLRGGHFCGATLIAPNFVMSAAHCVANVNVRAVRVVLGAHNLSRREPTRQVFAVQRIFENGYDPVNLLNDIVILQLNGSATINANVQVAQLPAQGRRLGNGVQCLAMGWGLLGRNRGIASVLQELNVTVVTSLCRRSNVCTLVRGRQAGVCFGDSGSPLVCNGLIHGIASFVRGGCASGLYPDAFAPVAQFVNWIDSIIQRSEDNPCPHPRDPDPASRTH
Description: Selectivity of compound inhibition was evaluated against other proteases at concentrations between 0.4 and 200 μM. Activity against rabbit angiotensin-converting enzyme (ACE, Sigma) was assessed using 10 μM fluorogenic substrate Abz-Phe-Arg-Lys(Dnp)-P (Enzo Life Sciences) in 100 mM Tris-HCl pH 7, 50 mM NaCl, 10 μM Zn SO4. Activity against human matrix metalloproteases (MMP)-2 and MMP-9 was assessed in 50 mM HEPES pH 7.5, 10 mM CaCl2, 0.01% Triton X-100 using 4 μM fluorogenic substrate Mca-Pro-Leu-Gly-Leu-Dpa-Ala-Arg-NH2 (Enzo Life Sciences). Activity against MMP-1 and MMP-13 was assessed in 25 mM HEPES pH 7.5, 100 mM NaCl, 100 mM CaCl2, 0.0005% Brij using 7.5 μM fluorogenic substrate Mca-Lys-Pro-Leu-Gly-Leu-Dpa-Ala-Arg-NH2 (Sigma) for MMP-1 and 1.25 μM fluorogenic substrate Mca-Pro-Cha-Gly-Nva-His-Ala-Dpa-NH2 (Millipore) for MMP-13. Activity against human neutrophil elastase (HNE, Enzo Life Sciences) was assessed in 100 mM HEPES pH 7.5, 500 mM NaCl, 0.01% of Triton X-100 using 100 μM fluorogenic substrate MeOSuc-AAPV-AMC (Enzo Life Sciences).

purified LasB = target: T4, purified LasB (Pseudomonas aeruginosa, UniProt P14756); experiment: LasB inhibition, fluorimetric Abz-AGLA-Nba hydrolysis assay with purified LasB; type: biochemical
T4 construct: The mature LasB protein is a 33 kDa metalloprotease, which is secreted from P. aeruginosa; host or cells: P. aeruginosa PAO1 (native secretion, culture supernatant)
Excerpt: This was chosen as the starting point for a medicinal chemistry-driven lead optimization program aiming to improve potency and solubility whilst retaining selectivity against host metalloenzymes. All synthesized compounds were initially assessed in a fluorimetric assay measuring hydrolysis of a fluorogenic substrate Abz-Ala-Gly-Leu-Ala-4-nitrobenzylamide (Abz-AGLA-Nba) by purified LasB and IC50 values determined (Tables 1 and 2). Inhibition of elastin hydrolytic activity was confirmed using an orthogonal assay measuring hydrolysis of Elastin Congo Red (ECR) complex by LasB prepared directly from a P. aeruginosa culture supernatant (Tables 1 and 2). […] Aqueous solubility was determined for most compounds (Tables 1 and 2).
Native LasB protein was purified from culture supernatants of P. aeruginosa strain PAO1 (Charles River Laboratories, U.K.). Briefly, the sample was concentrated by ultrafiltration and the protein was purified by chromatography using an anion exchange (pH 8.5) step followed by gel filtration. This procedure yielded an enzyme preparation (0.8 mg/mL) of >98% purity. The enzyme was stored at −80 °C.
LasB inhibition assays were performed using purified LasB enzyme (1 ng/well) for compound screening or using culture supernatants (prepared as described in the ECR assay) for testing LasB variants. Hydrolysis of the fluorogenic peptide substrate 2-aminobenzoyl-Ala-Gly-Leu-Ala-4-nitrobenzylamide (Abz-AGLA-Nba; Peptide International) in 50 mM Tris-HCl (pH 7.4), supplemented with 2.5 mM CaCl2 was followed using an Envision microplate reader (PerkinElmer) at 315 nm excitation and 430 nm emission. For screening of lead compounds, assays were performed in the presence of 0.01% Triton X-100 with a range of inhibitor concentrations from 0.003 to 3.2 μM. IC50 values were determined from Hill plots using Dotmatics Studies ELN software. For the mechanism of inhibition studies, hydrolysis rates were measured in the presence of variable concentrations of substrate and inhibitor, and the inhibition constant (Ki) was determined using Dixon plot analysis.[31]

LasB Q71L = target: T5, LasB Q71L (Pseudomonas aeruginosa, UniProt P14756); experiment: LasB variant inhibition, culture supernatant: Q71L; type: biochemical, P. aeruginosa
T5 construct: endogenous in cells; host or cells: P. aeruginosa clinical CF isolate, culture supernatant
Excerpt: as §1, §2

T4 sequence (P14756 198-498): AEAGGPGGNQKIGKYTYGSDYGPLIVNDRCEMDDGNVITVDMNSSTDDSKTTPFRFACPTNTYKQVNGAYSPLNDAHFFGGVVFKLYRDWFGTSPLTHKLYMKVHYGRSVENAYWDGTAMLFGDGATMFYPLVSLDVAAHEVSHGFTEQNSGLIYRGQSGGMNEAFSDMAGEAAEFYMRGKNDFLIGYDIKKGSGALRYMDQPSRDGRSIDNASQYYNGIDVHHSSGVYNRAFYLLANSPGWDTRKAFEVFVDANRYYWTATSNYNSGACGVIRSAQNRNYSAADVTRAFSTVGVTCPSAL
T1 sequence (P14756 198-498): as above
T5 sequence (P14756 198-498, stated change not applied): as the sequence (P14756 198-498) above
T2 sequence (P14756 198-498, looked up, stated change not applied): as the sequence (P14756 198-498) above

Compound | IC50 (LasB WT (PAO1 reference)) [µM] | IC50 [1] [µM] | solubility [2] [mg/mL] | IC50 [3] [µM] | IC50 (purified LasB) [µM] | Ki (purified LasB) [µM] | IC50 (LasB Q71L) [µM]
COc1cc2sc(CNC(=O)C3(CC(=O)O)Cc4ccccc4C3)nc2cc1OCCC[N+](C)(C)C [Compound 12] | 0.222 | 0.183 | 17.7 | > 200 | 0.13 | 0.035 | 0.214
COc1cc2sc(CNC(=O)C3(CC(=O)O)Cc4cc(F)c(F)cc4C3)nc2cc1OCCC[N+](C)(CCO)CCO [Compound 16] | 0.177 | 0.178 | 15.1 | > 200 | 0.08 | 0.032 | 0.177

From article PMC9926489, “Chemical Optimization of Selective Pseudomonas aeruginosa LasB Elastase Inhibitors and Their Impact on LasB-Mediated Activation of IL-1β in Cellular and Animal Infection Models” (ACS Infectious Diseases, 2023)
